Source: patent US8455528B2, “Imidazole derivatives useful as inhibitors of FAAH” (Merck Sharp & Dohme Corp., priority 2008, dated 2013)

Target: T1, Human FAAH (Homo sapiens, UniProt O00519)
T1 construct: The full length FAAH was subcloned into the mammalian expression vector, pcDEF.neo; expressed in transfected cells
T1 sequence (O00519 1-579): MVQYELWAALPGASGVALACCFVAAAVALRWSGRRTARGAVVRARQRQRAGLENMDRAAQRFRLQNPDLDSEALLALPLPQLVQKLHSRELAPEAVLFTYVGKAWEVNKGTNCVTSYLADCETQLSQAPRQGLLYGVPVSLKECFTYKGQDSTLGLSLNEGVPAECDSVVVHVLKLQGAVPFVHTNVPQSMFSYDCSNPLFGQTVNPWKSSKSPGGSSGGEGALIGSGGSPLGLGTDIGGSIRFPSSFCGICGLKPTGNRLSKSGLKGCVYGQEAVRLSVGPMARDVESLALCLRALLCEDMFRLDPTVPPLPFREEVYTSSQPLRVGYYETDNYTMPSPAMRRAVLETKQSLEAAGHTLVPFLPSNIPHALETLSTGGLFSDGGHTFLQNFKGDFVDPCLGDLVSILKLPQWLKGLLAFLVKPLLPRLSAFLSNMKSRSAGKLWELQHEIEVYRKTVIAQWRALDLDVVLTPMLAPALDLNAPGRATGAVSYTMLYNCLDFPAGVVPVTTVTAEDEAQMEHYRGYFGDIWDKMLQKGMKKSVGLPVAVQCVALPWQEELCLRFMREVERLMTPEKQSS
Experiment: Human FAAH lysate assay (CHO cell lysate, AAMCA fluorescent substrate)
Assay type: biochemical
Conditions: FAAH inhibition, CHO cell lysate expressing human FAAH; read-out: Human Lysate
Description: To assist in assay development stable cell lines for human, murine and rat full length FAAH were developed. Human FAAH cDNA (Accession No: NM-001441.1) was purchased from Origene (Rockville, Md.). The full length FAAH was subcloned into the mammalian expression vector, pcDEF.neo, using XbaI and EcoRI restriction sites and used for stable cell line generation. CHO cells expressing FAAH were used to prepare either crude cell lysate or microsome fractions. To harvest cells, tissue culture media was decanted, the monolayer washed three times with Ca^++Mg^++ free PBS and cells recovered after 15 min in enzyme free dissociation media (Millipore Corp, Billerica, Mass.). Cells were collected by centrifuging at 2000 rpm for 15 min. and the cell pellet re-suspended with 50 mM HEPES (pH 7.4) containing 1 mM EDTA and the protease inhibitors aprotinin (1 mg/ml) and leupeptin (100 μM). […] The pellet containing FAAH-enriched microsomes was re-suspend in 50 mM HEPES, (pH 7,4) 1 mM EDTA, and any remaining DNA sheared by passage of material through a 23 gauge needle and aliquots of enzyme were store at -80° C. prior to use. […] (American Radiolabeled Chemicals; 1 mCi/ml) with FAAH (Life Sciences (1995), 56, 1999-2005 and Journal of Pharmacology and Experimented Therapeutics (1997), 283, 729-734), Analytical. Biochemistry (2003), 318, 270-5. […] Analytical. Biochemistry (2005). 343, 143-51 […] Fluorescent release as a measure of FAAH activity was monitored by reading the plate in a CytoFluor Multiplate Reader ([…]). Whole cell assay is conducted with cells harvested after rinsing tissue culture flasks three times with Ca^++Mg^++ free PBS, incubating for 10 min in Enzyme free dissociation media and centrifuging for 5 minutes at 1,000 rpm in table top centrifuge. Cells are resuspended in assay buffer at desired cell number in (4×10^4 cells/assay in 96-well format; 1×10^4 cells/assay in 384-well format) and assayed as described. […] The reaction was terminated by addition of 2 volumes of chloroform:methanol (1:1) and mixed by vortexing. […] K., et al. A fluorescence-based assay for fatty acid amide hydrolase compatible with high-throughput screening. Anal. Biochem. 343:143-51 (2005) • Wilson S. J., et l. A high-throughput-compatible assay for determining the activity of fatty acid amide hydrolase. Anal Biochem. 318:270-5 (2003).

Compound | IC50 [nM]
CC(C)c1nc(-c2ccc(S(C)(=O)=O)cc2)c(Sc2ccc(Cl)cc2)n1C [Ex 29, 5-[(4-Chlorophenyl)thio]-2-isopropyl-1-methyl-4-[4-(methylsulfonyl)phenyl]-1H-imidazole] | 74.4
CS(=O)(=O)c1ccc(-c2nc(C3CCC3)[nH]c2Sc2ccc(Cl)cc2)cc1 [Ex 13] | 946
Cn1cnc(-c2ccc(C#N)cc2)c1Sc1ccc(Cl)cc1 [Ex 33, 4-{5-[(4-chlorophenyl)thio]-1-methyl-1H-imidazol-4-yl}benzonitrile] | 363
Cn1c(C2CCC2)nc(-c2ccc(S(C)(=O)=O)cc2)c1Sc1ccc(Cl)cc1 [Ex 14] | 26.5

More lines, now with the values ahead:

IC50 [nM] | Compound
26.9 | Cn1c(-c2ccccn2)nc(-c2ccc(-c3nnco3)cc2)c1Sc1ccc(Cl)cn1 [Ex 36, 5-Chloro-2-({1-methyl-4-[4-(1,3,4-oxadiazol-2-yl)phenyl]-2-pyridin-2-yl-1H-imidazol-5-yl}thio)pyridine]
21.4 | Cn1c(-c2ccccn2)nc(-c2ccc(C(O)C(F)F)cc2)c1Sc1ccc(Cl)cc1 (stereo not drawn) [Ex 57, 1-(4-{5-[(4-Chlorophenyl)thio]-1-methyl-2-pyridin-2-yl-1H-imidazol-4-yl}phenyl)-2,2-difluoroethanol]
16.6 | Cn1c(-c2ccccn2)nc(-c2ccc(-n3ccnn3)cc2)c1Sc1ccc(Cl)cc1 [Ex 66]
21.2 | Cn1c(-c2ccccc2)nc(-c2ccc(C#N)cc2)c1Sc1ccc(Cl)cc1 [Ex 2, 4-{5-[(4-Chlorophenyl)thio]-1-methyl-2-phenyl-1H-imidazol-4-yl}benzonitrile]
33.7 | Cn1c(-c2ccccn2)nc(-c2ccc(N)cc2)c1Sc1ccc(Cl)cc1 [Ex 98, 4-{5-[(4-Chlorophenyl)thio]-1-methyl-2-pyridin-2-yl-1H-imidazol-4-yl}aniline]
